Reference: PubChem BioAssay AID316 (DTP/NCI, 2004)
Values joined by “and” are separate entries in the source; they are usually repeats but may differ in a detail not shown here. Equal values may be shown once. Toxic doses and inconclusive results are not listed.

Test system: P1534 leukemia ip, CD2F1 mice, survival T/C
Test: NCI In Vivo Anticancer Drug Screen. Data for tumor model P1534 Leukemia (intraperitoneal) in CD2F1 (CDF1) mice
Details: endpoint: mean survival time, higher = longer survival
Method: The antitumor activity of compounds was measured in mice bearing transplantable tumors. Survival or tumor size were measured and the results are expressed as the measurement made in the treated group (T) divided by the measurement made in the vehicle treated control group (C). The tumor model used in this assay is P1534 Leukemia (intraperitoneal) in CD2F1 (CDF1) mice

[1] = dose: 12.5 mg/kg/injection, schedule: Q01DX010 (ip), vehicle: saline
[2] = dose: 25.0 mg/kg/injection, schedule: Q01DX010 (ip), vehicle: saline
[3] = dose: 100.0 mg/kg/injection, schedule: Q01DX010 (ip), vehicle: saline
[4] = dose: 20.0 mg/kg/injection, schedule: Q01DX010 (ip), vehicle: saline
[5] = dose: 40.0 mg/kg/injection, schedule: Q01DX010 (ip), vehicle: saline
[6] = dose: 80.0 mg/kg/injection, schedule: Q01DX010 (ip), vehicle: saline
[7] = dose: 50.0 mg/kg/injection, schedule: Q01DX010 (ip), vehicle: saline

`COc1ccc2c(c1OC)C(=O)O[C@@H]2[C@H]1c2c(cc3c(c2OC)OCO3)CCN1C` was tested, and the T/C (dose: 31.3 mg/kg/injection, schedule: Q01DX010 (ip), vehicle: saline) was 103 % of control, the T/C (dose: 62.5 mg/kg/injection, schedule: Q01DX010 (ip), vehicle: saline) was 92 % of control and 100 % of control and the T/C (dose: 125.0 mg/kg/injection, schedule: Q01DX010 (ip), vehicle: saline) was 100 % of control. For the same molecule, the T/C (dose: 250.0 mg/kg/injection, schedule: Q01DX010 (ip), vehicle: saline) was 100 % of control.
In the case of `CC(=O)NNC(=O)c1ccccn1`, the T/C (dose: 110.0 mg/kg/injection, schedule: Q01DX010 (ip), vehicle: water) was 100 % of control, the T/C (dose: 120.0 mg/kg/injection, schedule: Q01DX010 (ip), vehicle: water) was 107 % of control and the T/C (dose: 140.0 mg/kg/injection, schedule: Q01DX010 (ip), vehicle: water) was 98 % of control. The T/C (dose: 160.0 mg/kg/injection, schedule: Q01DX010 (ip), vehicle: water) was 112 % of control.
With `N[C@@H](Cc1ccc(N(CCCl)CCCl)cc1)C(=O)O` the T/C (dose: 1.25 mg/kg/injection, schedule: Q01DX010 (ip), vehicle: saline) was 164 % of control and the T/C (dose: 2.5 mg/kg/injection, schedule: Q01DX010 (ip), vehicle: saline) was 189 % of control.
`CC(=O)NC1=C(N2CC2)C(=O)C(NC(C)=O)=C(N2CC2)C1=O` was tested, and the T/C (dose: 31.3 micrograms/kg/injection, schedule: Q01DX010 (ip), vehicle: saline) was 107 % of control and the T/C (dose: 62.5 micrograms/kg/injection, schedule: Q01DX010 (ip), vehicle: saline) was 110 % of control.
`O=C(NCCCC(NC(=O)OCc1ccccc1)C(=O)NCCCCCCNCCCCCCNC(=O)C(CCCNC(=O)OCc1ccccc1)NC(=O)OCc1ccccc1)OCc1ccccc1` (configuration not stated) was tested, and the T/C [1] was 100 % of control, the T/C [2] was 100 % of control and the T/C [3] was 100 % of control.
In the case of `COc1ccc2[nH]c3c(C)c4ccncc4c(C)c3c2c1`, the T/C (dose: 10.0 mg/kg/injection, schedule: Q01DX010 (ip), vehicle: saline) was 105 % of control and 102 % of control, the T/C [4] was 110 % of control and 117 % of control and the T/C [5] was 115 % of control and 123 % of control. The T/C [6] was 122 % of control.
In the case of `O=P1(N(CCCl)CCCl)NCCCO1` (configuration not stated), the T/C (dose: 2.9 mg/kg/injection, schedule: Q01DX010 (ip), vehicle: saline) was 98 % of control, the T/C (dose: 5.7 mg/kg/injection, schedule: Q01DX010 (ip), vehicle: saline) was 106 % of control and the T/C (dose: 11.3 mg/kg/injection, schedule: Q01DX010 (ip), vehicle: saline) was 111 % of control.
`NC(N)=NCCCC(N)C(=O)NCCCCCCNC(=O)C(N)CCCN=C(N)N` (configuration not stated) was tested, and the T/C [2] was 100 % of control, the T/C [7] was 96 % of control and the T/C [3] was 100 % of control. The T/C (dose: 200.0 mg/kg/injection, schedule: Q01DX010 (ip), vehicle: saline) was 100 % of control.
With `CCN(CC)CCNc1ccc(C)c2sc3ccccc3c(=O)c12` the T/C [4] was 103 % of control, the T/C [5] was 103 % of control and the T/C [6] was 107 % of control.
With `CC(C)=CCC1=C(O)c2ccccc2C(=O)C1=O` the T/C (dose: 200.0 mg/kg/injection, schedule: Q01DX010 (oral), vehicle: other) was 102 % of control, the T/C (dose: 300.0 mg/kg/injection, schedule: Q01DX010 (oral), vehicle: other) was 115 % of control and the T/C (dose: 400.0 mg/kg/injection, schedule: Q01DX010 (oral), vehicle: other) was 112 % of control. For the same molecule, the T/C (dose: 600.0 mg/kg/injection, schedule: Q01DX010 (oral), vehicle: other) was 103 % of control.
With `C/C=C1\CNC2Cc3c([nH]c4ccccc34)C(=O)CC1C2C(=O)OC` (configuration not stated) the T/C [1] was 93 % of control, the T/C [2] was 103 % of control and the T/C [7] was 96 % of control. For the same molecule, the T/C [3] was 93 % of control.
